# Results from patent US7612211B2, “Benzimidazole TRPV1 inhibitors” (Janssen Pharmaceutica N.V., priority 2006, dated 2009).
# Biological target: T1, hTRPV1 (Homo sapiens, UniProt Q8NER1)
# T1 construct: expressed in transfected cells; host or cells: HEK293
# Assay: Human TRPV1 (hTRPV1) functional assay, FLIPR intracellular Ca2+, capsaicin challenge
# Assay type: cell-based
# Settings: HEK293 cells expressing hTRPV1, capsaicin 0.030 μM challenge; for inhibition at 0.5 µM: test concentration of 0.5 μm, read-out: percent inhibition (symbol a); for IC50: derived from a variety of test concentrations, read-out: IC50 value (symbol c); for inhibition at 0.2 µM: test concentration of 0.2 μm, read-out: percent inhibition (symbol b)
# In short: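 HEK293 cells expressing the channel, loaded with Calcium 3 dye, were exposed to compounds for 5 min before capsaicin 0.030 μM (~80% maximal). FLIPR Ca2+ read; IC50/EC50 from quadruplicate concentration-response, or percent inhibition at 0.5 μm or 0.2 μm.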
# T1 sequence (Q8NER1 whole entry): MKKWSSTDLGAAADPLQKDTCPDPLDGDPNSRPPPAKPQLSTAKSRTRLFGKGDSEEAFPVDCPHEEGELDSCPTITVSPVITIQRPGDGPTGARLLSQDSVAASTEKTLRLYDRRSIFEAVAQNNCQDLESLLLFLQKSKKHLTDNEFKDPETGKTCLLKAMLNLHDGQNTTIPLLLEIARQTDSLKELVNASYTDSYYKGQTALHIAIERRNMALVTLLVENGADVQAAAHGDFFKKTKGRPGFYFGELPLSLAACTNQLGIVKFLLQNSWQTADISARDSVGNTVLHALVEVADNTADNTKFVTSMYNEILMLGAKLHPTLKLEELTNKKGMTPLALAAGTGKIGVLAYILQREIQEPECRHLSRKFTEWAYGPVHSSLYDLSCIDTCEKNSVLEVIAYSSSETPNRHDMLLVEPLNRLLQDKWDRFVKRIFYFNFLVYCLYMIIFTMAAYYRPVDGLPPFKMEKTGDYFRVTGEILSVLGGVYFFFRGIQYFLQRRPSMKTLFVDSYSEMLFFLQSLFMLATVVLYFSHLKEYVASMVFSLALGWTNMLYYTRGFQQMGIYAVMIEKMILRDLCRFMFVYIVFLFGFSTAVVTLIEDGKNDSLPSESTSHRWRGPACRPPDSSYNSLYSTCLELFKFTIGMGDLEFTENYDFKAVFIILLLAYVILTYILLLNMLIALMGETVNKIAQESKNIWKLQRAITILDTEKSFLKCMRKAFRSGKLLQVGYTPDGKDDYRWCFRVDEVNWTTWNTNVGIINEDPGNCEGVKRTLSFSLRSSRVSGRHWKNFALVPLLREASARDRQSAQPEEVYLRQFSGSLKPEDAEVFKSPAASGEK
Structure (SMILES),inhibition at 0.5 µM [%],IC50 [nM],inhibition at 0.2 µM [%]
"NS(=O)(=O)c1ccccc1-c1ccc2[nH]c(OCc3ccc(C(F)(F)F)cc3)nc2c1 [Cpd 138, 2-[2-(4-trifluoromethyl-benzyloxy)-1H-benzoimidazol-5-yl]-benzenesulfonamide]",18,,
"NS(=O)(=O)c1ccccc1-c1ccc2[nH]c(C(F)(F)Oc3ccc(C(F)(F)F)cc3)nc2c1 [Cpd 139, 2-{2-[difluoro-(4-trifluoromethyl-phenoxy)-methyl]-1H-benzoimidazol-5-yl}-benzenesulfonamide]",99,21,
"CNS(=O)(=O)c1ccccc1-c1ccc2[nH]c(C(F)(F)Oc3ccc(C(F)(F)F)cc3)nc2c1 [Cpd 140, 2-{2-[difluoro-(4-trifluoromethyl-phenoxy)-methyl]-1H-benzoimidazol-5-yl}-N-methyl-benzenesulfonamide]",101,17,
"CN(C)S(=O)(=O)c1ccccc1-c1ccc2[nH]c(C(F)(F)Oc3ccc(C(F)(F)F)cc3)nc2c1 [Cpd 141, 2-{2-[difluoro-(4-trifluoromethyl-phenoxy)-methyl]-1H-benzoimidazol-5-yl}-N,N-dimethyl-benzenesulfonamide]",99,83,
"O=S(=O)(CCO)c1ccccc1-c1ccc2[nH]c(COc3ccc(C(F)(F)F)cc3)nc2c1 [Cpd 142, 2-{2-[2-(4-trifluoromethyl-phenoxymethyl)-1H-benzoimidazol-5-yl]-benzenesulfonyl}-ethanol]",,8,97
"CC(O)c1ccccc1-c1ccc2[nH]c(COc3ccc(C(F)(F)F)cc3)nc2c1 (stereo not shown) [Cpd 143, 1-{2-[2-(4-trifluoromethyl-phenoxymethyl)-1H-benzoimidazol-5-yl]-phenyl}-ethanol]",,13,
"CC(C)C(O)c1ccccc1-c1ccc2[nH]c(COc3ccc(C(F)(F)F)cc3)nc2c1 (stereo not shown) [Cpd 144, 2-methyl-1-{2-[2-(4-trifluoromethyl-phenoxymethyl)-1H-benzoimidazol-5-yl]-phenyl}-propan-1-ol]",,114,82
"CC(C)(C)C(O)c1ccccc1-c1ccc2[nH]c(COc3ccc(C(F)(F)F)cc3)nc2c1 (stereo not shown) [Cpd 145, 2,2-dimethyl-1-{2-[2-(4-trifluoromethyl-phenoxymethyl)-1H-benzoimidazol-5-yl]-phenyl}-propan-1-ol]",,,12
"CC(O)C(=O)c1ccccc1-c1ccc2[nH]c(COc3ccc(C(F)(F)F)cc3)nc2c1 (stereo not shown) [Cpd 146, 2-hydroxy-1-{2-[2-(4-trifluoromethyl-phenoxymethyl)-1H-benzoimidazol-5-yl]-phenyl}-propan-1-one]",,,72
"CC(C)(O)C(=O)c1ccccc1-c1ccc2[nH]c(COc3ccc(C(F)(F)F)cc3)nc2c1 [Cpd 147, 2-hydroxy-2-methyl-1-{2-[2-(4-trifluoromethyl-phenoxymethyl)-1H-benzoimidazol-5-yl]-phenyl}-propan-1-one]",,7,98
"CN(C)C(=O)C(O)c1ccccc1-c1ccc2[nH]c(COc3ccc(C(F)(F)F)cc3)nc2c1 (stereo not shown) [Cpd 148, N,N-dimethyl-2-hydroxy-2-{2-[2-(4-trifluoromethyl-phenoxymethyl)-1H-benzoimidazol-5-yl]-phenyl}-acetamide]",,58,89
"CON(C)C(=O)C(O)c1ccccc1-c1ccc2[nH]c(COc3ccc(C(F)(F)F)cc3)nc2c1 (stereo not shown) [Cpd 149, 2-hydroxy-N-methoxy-N-methyl-2-{2-[2-(4-trifluoromethyl-phenoxymethyl)-1H-benzoimidazol-5-yl]-phenyl}-acetamide]",,46,89
"OCC(O)c1ccccc1-c1ccc2[nH]c(COc3ccc(C(F)(F)F)cc3)nc2c1 (stereo not shown) [Cpd 150, 1-{2-[2-(4-trifluoromethyl-phenoxymethyl)-1H-benzoimidazol-5-yl]-phenyl}-ethane-1,2-diol]",,16,99
"O=C(CO)c1ccccc1-c1ccc2[nH]c(COc3ccc(C(F)(F)F)cc3)nc2c1 [Cpd 151, 2-hydroxy-1-{2-[2-(4-trifluoromethyl-phenoxymethyl)-1H-benzoimidazol-5-yl]-phenyl}-ethanone]",,,33
"O=C(NCCO)c1ccccc1-c1ccc2[nH]c(COc3ccc(C(F)(F)F)cc3)nc2c1 [Cpd 152, N-(2-hydroxy-ethyl)-2-[2-(4-trifluoromethyl-phenoxymethyl)-1H-benzoimidazol-5-yl]-benzamide]",,,38
"CC(C)(O)CNC(=O)c1ccccc1-c1ccc2[nH]c(COc3ccc(C(F)(F)F)cc3)nc2c1 [Cpd 153, N-(2-hydroxy-2-methyl-propyl)-2-[2-(4-trifluoromethyl-phenoxymethyl)-1H-benzoimidazol-5-yl]-benzamide]",,,31

Structure (SMILES),inhibition at 0.5 µM [%],IC50 [nM],inhibition at 0.2 µM [%]
"CC(O)CNC(=O)c1ccccc1-c1ccc2[nH]c(COc3ccc(C(F)(F)F)cc3)nc2c1 (stereo not shown) [Cpd 154, N-(2-hydroxy-propyl)-2-[2-(4-trifluoromethyl-phenoxymethyl)-1H-benzoimidazol-5-yl]-benzamide]",,,68
"CN(CCO)C(=O)c1ccccc1-c1ccc2[nH]c(COc3ccc(C(F)(F)F)cc3)nc2c1 [Cpd 155, N-(2-hydroxy-ethyl)-N-methyl-2-[2-(4-trifluoromethyl-phenoxymethyl)-1H-benzoimidazol-5-yl]-benzamide]",,,21
"CC(Oc1ccc(C(F)(F)F)cc1)c1nc2cc(-c3ccccc3S(N)(=O)=O)ccc2[nH]1 (stereo not shown) [Cpd 156, 2-{2-[1-(4-trifluoromethyl-phenoxy)-ethyl]-1H-benzoimidazol-5-yl}-benzenesulfonamide]",,78,76
"CCC(Oc1ccc(C(F)(F)F)cc1)c1nc2cc(-c3ccccc3S(N)(=O)=O)ccc2[nH]1 (stereo not shown) [Cpd 157, 2-{2-[1-(4-trifluoromethyl-phenoxy)-propyl]-1H-benzoimidazol-5-yl}-benzenesulfonamide]",,,20
"O=S(=O)(c1ccccc1-c1ccc2[nH]c(COc3ccc(C(F)(F)F)cc3)nc2c1)C(F)(F)F [Cpd 158, 5-(2-trifluoromethanesulfonyl-phenyl)-2-(4-trifluoromethyl-phenoxymethyl)-1H-benzoimidazole]",,,13
"CC(C)(O)CS(=O)(=O)c1ccccc1-c1ccc2[nH]c(COc3ccc(C(F)(F)F)cc3)nc2c1 [Cpd 159, 2-methyl-1-{2-[2-(4-trifluoromethyl-phenoxymethyl)-1H-benzoimidazol-5-yl]-benzenesulfonyl}-propan-2-ol]",,22,90
"CC(O)CS(=O)(=O)c1ccccc1-c1ccc2[nH]c(COc3ccc(C(F)(F)F)cc3)nc2c1 (stereo not shown) [Cpd 160, 1-{2-[2-(4-trifluoromethyl-phenoxymethyl)-1H-benzoimidazol-5-yl]-benzenesulfonyl}-propan-2-ol]",,12.5,90
"O=S(=O)(CCO)c1ccccc1-c1ccc2[nH]c(COc3ccc(S(=O)(=O)C(F)(F)F)cc3)nc2c1 [Cpd 161, 2-{2-[2-(4-trifluoromethanesulfonyl-phenoxymethyl)-1H-benzoimidazol-5-yl]-benzenesulfonyl}-ethanol]",,,63
"CS(=O)(=O)c1ccc(OCc2nc3cc(-c4ccccc4S(=O)(=O)CCO)ccc3[nH]2)cc1 [Cpd 162, 2-{2-[2-(4-methanesulfonyl-phenoxymethyl)-1H-benzoimidazol-5-yl]-benzenesulfonyl}-ethanol]",,,4
"CC(C)(O)c1ccccc1-c1ccc2[nH]c(COc3ccc(C4CC4)cc3)nc2c1 [Cpd 163, 2-{2-[2-(4-cyclopropyl-phenoxymethyl)-1H-benzoimidazol-5-yl]-phenyl}-propan-2-ol]",,3,98
"NS(=O)(=O)c1ccccc1-c1ccc2[nH]c(COc3ccc(C4CC4)cc3)nc2c1 [Cpd 164, 2-[2-(4-cyclopropyl-phenoxymethyl)-1H-benzoimidazol-5-yl]-benzenesulfonamide]",,25,97
"CNS(=O)(=O)c1ccccc1-c1ccc2[nH]c(COc3ccc(C4CC4)cc3)nc2c1 [Cpd 165, 2-[2-(4-cyclopropyl-phenoxymethyl)-1H-benzoimidazol-5-yl]-N-methyl-benzenesulfonamide]",,6,98
"CN(C)S(=O)(=O)c1ccccc1-c1ccc2[nH]c(COc3ccc(C4CC4)cc3)nc2c1 [Cpd 166, 2-[2-(4-cyclopropyl-phenoxymethyl)-1H-benzoimidazol-5-yl]-N,N-dimethyl-benzenesulfonamide]",,7,98
"CS(=O)(=O)c1ccccc1-c1ccc2[nH]c(COc3ccc(C4CC4)cc3)nc2c1 [Cpd 167, 2-(4-cyclopropyl-phenoxymethyl)-5-(2-methanesulfonyl-phenyl)-1H-benzoimidazole]",,7,98
"CS(=O)(=O)Nc1ccccc1-c1ccc2[nH]c(COc3ccc(C4CC4)cc3)nc2c1 [Cpd 168, N-{2-[2-(4-cyclopropyl-phenoxymethyl)-1H-benzoimidazol-5-yl]-phenyl}-methanesulfonamide]",,24,97
